Results published in patent publication US8889680B2, “Treatment or prevention of fungal infections with PDK1 inhibitors” (priority 2010, dated 2014).

Assays:
[1] = test system: C. albicans clinical reference strain SC5314; assay: Adenylate kinase (AK) release assay of yeast cell lysis; assay type: cell-based, Candida albicans; set-up: dose or concentration left out as unconfirmed; conditions: extracellular AK activity relative to DMSO-treated cells
Protocol: AK assays were performed according to a recently published protocol (Didone et al., Nat. Protocol. 5:1107-14 (2010)) using the 96-well plate version using the Toxi-Light Assay kit (Lonza; Basel, Switzerland). Luminescence was measured using a SpectraMax plate reader (Molecular Devices; Sunnyvale, Calif.). […] To identify PKIs that disrupt yeast cell wall integrity, a four-part screening strategy as outlined in FIG. 1A was designed. The primary screen in the approach detects molecules that cause yeast cells to lyse, a characteristic phenotype of yeast cell wall damage, by use of an assay that detects the release of adenylate kinase (AK) to the growth medium as a reporter of yeast cell lysis. […] Last, to select PKIs specific for the CWI signaling pathway, the set of hits were tested for their ability to block the activation of a transcriptional reporter of the CWI-signaling pathway. To rapidly survey a sample of well-characterized PKIs, the commercially available InhibitorSelect collection, a library of 80 PKIs with diverse mechanistic and structural characteristics, was utilized. C. albicans clinical reference strain SC5314 was screened against the InhibitorSelect library for molecules that caused a release of AK into the growth medium.

[2] = test system: CWI pathway reporter Rlm1-lacZ; assay: β-Galactosidase CWI pathway reporter assay (Rlm1-lacZ); assay type: cell-based; conditions: sub-inhibitory concentrations (1/2 MIC), S. cerevisiae
Protocol: (§1) Bars indicate mean fold change in Miller units of β-galactosidase activity relative to logarithmic phase cells without calcofluor or PKI. Error bars indicate standard deviation of three independent trials performed in triplicate. […] The percentage of cells with PI uptake was determined by fluorescence.
Logarithmic phase S. cerevisiae (BY4741) cells harboring the pRLM1-lacZ plasmid were transferred to a 96-well plate, and treated with Calcofluor white ([…])+/−protein kinase inhibitor at sub-inhibitory concentrations (1/2MIC). The cells were incubated at room temperature for 5 hours and processed for β-galactosidase activity using the ThermoScientific Yeast β-galactosidase kit according to the manufacturer's instructions (Pierce; Rockford, Ill.). β-galactosidase activity was determined by measuring OD420 using a SpectraMax Plate reader (Molecular Devices) and expressed as fold change in Miller units (nmole/mg/min) relative to untreated cells. Each experiment was performed in duplicate with three independent isolates.
The novel, antifungal PKIs identified in the primary screen were evaluated for their ability to block CWI pathway signaling using a reporter construct that contains two copies of the consensus binding site for the CWI-pathway-regulated transcription factor Rlm1 fused to the β-galactosidase gene (Jung et al., Mol. Microbiol. 46:781-9 (2002)). […]

C. albicans [3] = assay: Checkerboard interaction assay (FIC); assay type: cell-based, Candida albicans
Protocol: This assay allows one to compare the activity of a molecule alone and in combination with another molecule by generating a fractional inhibitory concentration (FIC). FIC for two drugs (A & B) is calculated as follows: […]. FIC values less than 0.5 are considered synergistic; between 0.5 and 1 are additive; between 1-2 are indifferent; and above 2 are antagonistic. […] Therefore, KP-372-1 is not synergistic with either agent.

[4] = test system: leukemic and glioblastoma cells; conditions: cited from earlier work
[5] = test system: fluid-phase endocytosis in S. cerevisiae; assay: Lucifer yellow (LY) endocytosis assay; assay type: cell-based; conditions: sub-lethal KP-372-1, 1 hour pre-treatment, 1 hour time course
Protocol: LY uptake assays were performed as described previously (Dulic et al., Methods Enzymol. 194:697-710 (1991)) using LY obtained from Sigma (St. Louis, Mo.). […] Cells were then exposed to LY and aliquots were removed at 15 minute intervals. Endocytosis was stopped by the addition of sodium azide/succinate and the percentage of cells with vacuolar LY staining was determined by fluorescence microscopy.
Pkh kinases are also important for endocytosis in yeast. […] LY binds to the plasma membrane and is transported to the vacuole (yeast lysosomal homolog) in PKH-dependent fashion.

C. neoformans = assay: Antifungal susceptibility (microdilution MIC), C. neoformans; assay type: cell-based, Cryptococcus neoformans
Protocol: (§2) The antifungal activity of protein kinase inhibitors was determined using the Clinical and Laboratory Science Institute microdilution protocol M-27A2. Biofilm antifungal activity was determined using the protocol of Pierce et al. and is reported as MIC50S (Pierce et al., Nat. Protoc. 3:1494-1500 (2008)). Disk diffusion assays were performed as described previously (Roelants et al., Microbiology 150:3289-304 (2004)).
(§3) (FIG. 3A). […] Since the echinocandin class of cell wall-targeted 1,3-β-glucan synthase inhibitors is not active against C. neoformans, this represents one of the few cell wall-targeted molecules with activity against this important pathogen.

normal cells = conditions: cited from earlier work
human protein kinases = conditions: large panel of human protein kinases; cited from earlier work
C. albicans [6] = assay: Antifungal susceptibility (microdilution MIC), C. albicans; assay type: cell-based, Candida albicans
Protocol: as §2
To identify PKIs that disrupt yeast cell wall integrity, a four-part screening strategy as outlined in FIG. 1A was designed. The primary screen in the approach detects molecules that cause yeast cells to lyse, a characteristic phenotype of yeast cell wall damage, by use of an assay that detects the release of adenylate kinase (AK) to the growth medium as a reporter of yeast cell lysis. Previously it was shown that the AK assay in HTS format can detect as few as 500 lysed yeast cells in a sample of 10^5 cells (Didone et al., Nat. Protocol. 5:1107-14 (2010)). PKIs that cause yeast cells lysis (hits) were then re-confirmed by AK dose-response assays and tested for in vitro antifungal activity against the human fungal pathogen C. albicans using standard microdilution susceptibility testing. Last, to select PKIs specific for the CWI signaling pathway, the set of hits were tested for their ability to block the activation of a transcriptional reporter of the CWI-signaling pathway. […]

C. glabrata = assay: Antifungal susceptibility (microdilution MIC), C. glabrata; assay type: cell-based, Candida glabrata
Protocol: as §2, §3

C. albicans cells = assay: Propidium iodide uptake; assay type: cell-based, Candida albicans; conditions: KP-372-1 at MIC, 2 hours
Protocol: as §1
A hallmark phenotype of mutations and drugs that interfere with CWI signaling is that their effects can be suppressed by the addition of osmotic support such as 1M soribitol to the culture medium. By equalizing the osmotic gradient across the plasma membrane, cell integrity is less dependent upon an intact cell wall.

## O=C1c2ccccc2-c2nc3nnnn3nc21.O=C1c2ccccc2-c2nn3nnnc3nc21 [KP-372-1]
[1]
  Fold increase in AK release: 4 Fold
[2]
  Rlm1-lacZ reporter activity induced by Calcofluor white: completely abolished reporter activity
C. albicans [3]; combination with caspofungin
  FIC (fractional inhibitory concentration): 0.5
C. albicans [3]; combination with fluconazole
  FIC (fractional inhibitory concentration): 1.0
[4]
  activity against leukemic and glioblastoma cells: potent activity
[5]
  Lucifer yellow uptake (vacuolar localization): uptake is inhibited at early time points
C. neoformans
  antifungal activity (in words): highly active
Normal cells
  cytotoxicity toward normal cells: without significant cytotoxicity
Human protein kinases
  selectivity for a limited number of human kinases: at least 10 fold
C. albicans [6]; C. albicans
  antifungal activity (in words): highly active
C. albicans [6]; C. albicans growth assay, Table 1
  MIC: 3 µg/mL
C. glabrata
  antifungal activity (in words): highly active
C. albicans cells; 1M sorbitol-supplemented YPD
  cells stained by propidium iodide relative to YPD: five-fold fewer cells were stained
C. albicans cells; 37° C., YPD
  percentage of cells stained by propidium iodide: 36%
